US7906488B2, “Sphingolipids in treatment and prevention of steatosis and of steatosis or of hepatotoxicity and its sequelae” (Nederlandse Organisatie Voor …, priority 2004, dated 2011)

Legend:
[1] = tested on: galactosamine-injured primary rat hepatocytes; conditions: cited from earlier work
APOE*3Leiden mice = assay: Effect of dietary sphingolipids on plasma C and TG levels (0.1, 0.2, 0.4% in diet); assay type: in vivo; conditions: 0.4% sphingolipid in diet, compared with 0.2%
Description: Sphingolipids: The three sphingolipids that represent the most abundant natural complex sphingolipid classes and the three of the simplest natural sphingolipids, the sphingoid bases that can be formed by enzymatic breakdown of complex sphingolipids in the intestine were used. Sphingomyelin (mainly N-palmitoyl-sphingosine-1-phosphocholine) from egg was obtained from Larodan Fine Chemicals (Stockholm, Sweden). Yeast-derived (semi)synthetic ceramide III (N-stearoyl-phytosphingosine), cerebroside (N-stearoyl-phytosphingosine-1-glucose) and phytosphingosine (PS) were from Cosmoferm BV (Delft, the Netherlands). Sphinganine and sphingosine were from Avanti Polar Lipids (Albaster, Ala.). Animals and diets: Heterozygous female APOE*3Leiden transgenic mice (Van Vlijmen et al. 1994. J. Clin. Invest 93:1403-1410.) (6 months old) were fed a Western-type diet (Hope Farms, Woerden, the Netherlands) containing 15% cocoa butter, 0.25% cholesterol, 1% corn oil, 40.5% sucrose, 20% acid casein, 10% corn starch and 5.95% cellulose (all w/w) for 5 weeks. The mice were allowed free access to food and water. Body weight and food intake were monitored weekly. In the first experiment (FIG. 2), the mice were randomized after these 5 weeks into 7 groups (n=6), based on plasma cholesterol, triglycerides, and body weight. Subsequently, the mice were fed for three weeks the same diet without or with 0.1% (w/w) phytosphingosine (PS), sphingosine, sphinganine, cerebroside, ceramide III, or sphingomyelin. […]
Plasma parameters: Tail blood samples were collected in EDTA-coated cups, or in paraoxon-coated capillaries to prevent lipolysis as described in Zambon et al. 1993 (Zambon et al. 1993. J. Lipid Res. 34:1021-1028). Plasma lipid parameters were determined using commercial kits for total cholesterol (C) Chol R1 from Roche Diagnostics, Mannheim, Germany), non-esterified free fatty acids (FFA) (NEFA-C; Wako chemicals, Neuss, Germany), Total triglycerides (TG) (Triglyceride GPO-Trinder; Sigma, St. Louis, Mo.), β-hydroxybutyrate (β-HB; Sigma) and ALAT (Reflotron GPT; Roche). Serum amyloid A (SAA) was measured by ELISA (Biosource, Nivelles, Belgium) and fibrinogen by sandwich ELISA, as described in Koopman et al., 2005 (Koopman et al. 2005. Fibrinol Proteol 11:19). […] Hepatic VLDL-TG production: The rate of hepatic VLDL-TG production, de novo apoB secretion, and VLDL composition were determined in overnight-fasted mice. […] After 30 min, the animals received a Triton WR1339 injection (Tyloxapol, Sigma; 500 mg/kg body weight in 100 μl saline) to prevent systemic lipolysis of newly-secreted hepatic VLDL-TG (Aalto-Setala et al. 1992. J. Clin. Invest 90:1889-1900.27) Blood samples were drawn at 0, 15, 30, 60, and 90 min after Triton WR1339 injection and plasma TG concentrations were determined. […]

rats = conditions: administration to the food of rats; cited from earlier work
C57bI mice = conditions: intraperitoneal injection; cited from earlier work

| Compound | Plasma C (APOE*3Leiden mice) | other results |
| --- | --- | --- |
| CCCCCCCCC/C=C\CC/C=C/[C@@H](O)[C@H](CO[C@@H]1O[C@H](CO)[C@@H](O)[C@H](O)[C@H]1O)NC(=O)CCCCCCCCCCCCCCC [LCC, 1-O-(β-D-glucopyranosyl)-(2S,3R,4E,8Z)-2-N-palmityloctadecasphinga-4,8-diene] |  | Release into the culture medium of GPT and SDH [1]: reduce the release |
| CCCCCCCCCCCCCCCCCC(=O)N[C@@H](CO)[C@H](O)[C@H](O)CCCCCCCCCCCCCC [ceramide III, N-stearoyl-phytosphingosine] | decreased even more |  |
| CCCCCCCCCCCCC/C=C/[C@@H](O)[C@H](COP(=O)([O-])OCC[N+](C)(C)C)NC(=O)CCCCCCCCCCCCCCC [sphingomyelin, N-palmitoyl-sphingosine-1-phosphocholine] | decreased even more | Chances of occurrence of malignant, chemically induced colon cancer (rats): significantly decrease |
| CCCCCCCCCCCCC/C=C/[C@@H](O)[C@@H](N)CO [sphingosine] | decreased even more |  |
| glucocerebroside |  | Liver fat content (C57bI mice): reduced |
